Bridge positions count the residues as written; N and C are the ends. Peptide text beside a SMILES is read from it.
What was measured:
ACA antibodies = assay: Competitive binding peptide ACA ELISA, cardiolipin/β2-GPI-coated plates, panel of ACA antibodies (average); set-up: species or system human; conditions: peptide 1 mg/mL, average over nine antibodies
How it was run: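 Monomeric peptides at several concentrations were preincubated with aPL antibody, then added to cardiolipin-coated, fish-gelatin-blocked plates with IgG-depleted human serum as β2-GPI source, 1 h at RT. Bound IgG detected with alkaline phosphatase anti-human IgG and phenolphthalein monophosphate, A550; IC50 read at half-maximal absorbance.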

ACA-6501 [1] = assay: Phage-ELISA; type: binding, human; conditions: phage clones coated on wells, affACA-6501 2.5 μg/mL
Experimental: This method of selecting phage requires very tight binding of the insert to the screening antibody. Phage are directly coated onto wells of a microtitration plate and incubated with the screening antibody. Following washes to remove unbound antibody, an anti-human IgG alkaline phosphatase conjugate is added to bind any aPL antibodies bound to the phage. APL antibodies are then detected by adding a calorimetric substrate to the well which will react with alkaline phosphatase according to methods well known in the art.
Three mL cultures were prepared from 35 clones previously isolated with affinity purified ACA-6501 in several phage library screens as well as one fUSE 2 phage clone lacking a peptide insert which was used as a control. After centrifugation for 3 minutes at 17,000×g, 100 μL from each phage supernatant (adjusted to −2×10^11 particles/mL, based on absorbance) was added to microtitration plate wells (Falcon, Becton-Dickinson Labware, Lincoln Park, N.Y.) and allowed to incubate overnight at 4° C. Following four washes with TBS 7.4, the plate was blocked with 125 μL of 0.5% BSA/TBS for 1 hour at RT. After another four TBS washes, 100 μL of affACA-6501 previously diluted to 2.5 μg/mL in TBS/BSA was added to each well and allowed to incubate 1 hour at 37° C. Following an additional four washes, 100 μL anti-human IgG diluted 1:1000 in TBS/0.5% Tween was added to each well. After 1 hour at RT, enzyme substrate was added and the incubation allowed to proceed for 2 hours. Following the addition of 50 μL 0.2 M Na2HPO4 to stop the reaction, absorbance was measured at 550 nm in the automated plate absorbance reader. […] The sequences for these clones are showvn in Table 2.

ACA-6501 [2] = assay: Competitive binding peptide ACA ELISA, cardiolipin/β2-GPI-coated plates; set-up: species or system human; conditions: peptide 1 mg/mL, affinity purified antibody
How it was run: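 Monomeric peptides at several amounts were preincubated ~1 h at RT with ACA-6501 serum (final 1:400), then added to cardiolipin-coated, fish-gelatin-blocked plates with β2-GPI for 1 h at RT. Bound IgG was detected with alkaline phosphatase anti-human IgG and phenolphthalein monophosphate, read at 550 nm. IC50 was the peptide amount at half-maximal absorbance.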

ACA-6644 = assay: as above; set-up: species or system human; conditions: peptide 1 mg/mL, affinity purified antibody
How it was run: (§1)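 Absorbance at 550 nm gives the IC50, read where the half-maximal signal meets the peptide amount on the inhibition curve. Peptides at several concentrations compete with an optimized aPL antibody level on CL/β2-GPI wells.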

ACA-6626 = assay: as above; set-up: species or system human; conditions: peptide 1 mg/mL, affinity purified antibody
How it was run: as §1

ACA-6701 = assay: as above; set-up: species or system human; conditions: peptide 1 mg/mL, affinity purified antibody
How it was run: as §1

ACA-6903 = assay: as above; set-up: species or system human; conditions: peptide 1 mg/mL, affinity purified antibody
How it was run: as §1

ACA-6638 = assay: as above; set-up: species or system human; conditions: peptide 1 mg/mL, affinity purified antibody
How it was run: as §1

ACA-7005 = assay: as above; set-up: species or system human; conditions: peptide 1 mg/mL, affinity purified antibody
How it was run: as §1

ACA-6641 = assay: as above; set-up: species or system human; conditions: peptide 1 mg/mL, affinity purified antibody
How it was run: as §1

ACA-7004 = assay: as above; set-up: species or system human; conditions: peptide 1 mg/mL, affinity purified antibody
How it was run: as §1

CC(C)C[C@@H]1NC(=O)[C@H](CC(C)C)NC(=O)[C@H](CC(C)C)NC(=O)[C@@H](NC(=O)[C@@H]2CCCN2C(=O)CNC(=O)[C@H](C)N)CSSC[C@@H](C(=O)N2CCC[C@H]2C(=O)NCC(=O)O)NC(=O)[C@H](CCCNC(=N)N)NC(=O)[C@H](CC(=O)O)NC(=O)[C@@H]2CCCN2C(=O)[C@H](C)NC1=O [3B10, AGPCLLLAPDRCPG] (H-AGPCLLLAPDRCPG-OH; disulfide 4-12)
Percent Inhibition of AffACA by Peptide Monomers, Ave. (ACA antibodies): 65%
signal in the phage-ELISA (ACA-6501 [1]): significant signals
Percent Inhibition of AffACA by Peptide Monomers, 6501 (ACA-6501 [2]): 60%
Percent Inhibition of AffACA by Peptide Monomers, 6644 (ACA-6644): 55%
Percent Inhibition of AffACA by Peptide Monomers, 6626 (ACA-6626): 76%
Percent Inhibition of AffACA by Peptide Monomers, 6701 (ACA-6701): 51%
Percent Inhibition of AffACA by Peptide Monomers, 6903 (ACA-6903): 69%
Percent Inhibition of AffACA by Peptide Monomers, 6638 (ACA-6638): 87%
Percent Inhibition of AffACA by Peptide Monomers, 7005 (ACA-7005): 47%
Percent Inhibition of AffACA by Peptide Monomers, 6641 (ACA-6641): 52%
Percent Inhibition of AffACA by Peptide Monomers, 7004 (ACA-7004): 87%

From patent publication US20040009904A1, “APL immunoreactive peptides, conjugates thereof and methods of treatment for aPL antibody-mediated pathologies” (priority 1995, published 2004)
